Data: ChEMBL document CHEMBL1201862, “PubChem BioAssay data set” (2004)
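These data come from cells grown in 96-well plates and exposed to compound for 48 hours at five concentrations. GI50 marks 50% less growth.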 Calls of active or inactive are those of the source. Rule as the data show it: active = GI50 up to about 1.1 µM and inactive = higher. Non-standard residues stand in square brackets, D forms with d. Residues, ends and D or L forms follow the SMILES beside them. ξ: configuration not given here. *: point of attachment. ξNMeF = CNC(Cc1ccccc1)C(=O)O; NMeV = CN[C@H](C(=O)O)C(C)C; Boc = CC(C)(C)OC(=O)*; OBn = c1ccc(CO*)cc1

How the values were obtained:
Assay in all cases: growth of human tumour cells (NCI), 48 h
HL-60 = system: HL-60
SF-539 = system: SF-539
HT-29 = system: HT-29
HCC 2998 = system: HCC 2998
TK-10 = system: TK-10
UACC-62 = system: UACC-62
UO-31 = system: UO-31
RXF 393 = system: RXF 393
SW-620 = system: SW-620
UACC-257 = system: UACC-257
Malme-3M = system: Malme-3M
EKVX = system: EKVX
RPMI-8226 = system: RPMI-8226
K562 = system: K562
A498 = system: A498
MOLT-4 = system: MOLT-4
MCF7 = system: MCF7
SK-MEL-5 = system: SK-MEL-5
PC-3 = system: PC-3
NCI/ADR-RES = system: NCI/ADR-RES

Measured: GI50

COC(=O)C(=O)C(C(=O)C(=O)Nc1ccc(Cl)cc1C)c1nc2ccc(C(=O)c3ccccc3)cc2nc1O (stereo unspecified)
inactive: HL-60 96.6 µM | SF-539 58.5 µM | HT-29 > 100 µM | HCC 2998 98.9 µM | TK-10 > 100 µM | UACC-62 61.9 µM | UO-31 49.1 µM | RXF 393 52.2 µM | SW-620 > 100 µM | UACC-257 97.9 µM | Malme-3M > 100 µM | EKVX > 100 µM | RPMI-8226 > 100 µM | K562 29 µM | A498 21.6 µM | MOLT-4 51.1 µM

CC(=O)c1ccc(NC(=O)C(=O)CC(=O)c2sc(-n3nc(-c4ccccc4)cc3-c3ccccc3)nc2C)cc1
inactive: HL-60 > 100 µM | SF-539 > 100 µM | HT-29 > 100 µM | HCC 2998 > 100 µM | TK-10 > 100 µM | UACC-62 > 100 µM | UO-31 > 100 µM | RXF 393 > 100 µM | SW-620 > 100 µM | UACC-257 > 100 µM | Malme-3M > 100 µM | EKVX > 100 µM | RPMI-8226 > 100 µM | K562 > 100 µM | A498 > 100 µM | MOLT-4 > 100 µM

O=C1COc2cccnc2N1CCCCO
inactive: HL-60 > 100 µM | SF-539 > 100 µM | TK-10 > 100 µM | UACC-62 > 100 µM | UO-31 > 100 µM | RXF 393 > 100 µM | SW-620 > 100 µM | MCF7 > 100 µM | UACC-257 > 100 µM | SK-MEL-5 > 100 µM | EKVX > 100 µM | RPMI-8226 > 100 µM | PC-3 > 100 µM | A498 > 100 µM | MOLT-4 > 100 µM

Cc1ccc(S(=O)(=O)NNC(=O)c2sc(-c3nc(C)c(C(=O)NNS(=O)(=O)c4ccc(C)cc4)s3)nc2C)cc1
inactive: HL-60 48.5 µM | SF-539 > 100 µM | HT-29 57.3 µM | HCC 2998 > 100 µM | TK-10 > 100 µM | UACC-62 72.3 µM | UO-31 28.8 µM | RXF 393 > 100 µM | SW-620 > 100 µM | UACC-257 > 100 µM | SK-MEL-5 71.1 µM | Malme-3M > 100 µM | EKVX > 100 µM | RPMI-8226 45.3 µM | K562 45.9 µM | A498 > 100 µM | MOLT-4 42.4 µM

COC(=O)[C@]1(C)C(OC)=CC(=O)C2C1[C@H]1CCC[C@@H]21 (stereo partly specified)
inactive: HL-60 > 100 µM | SF-539 > 100 µM | HT-29 > 100 µM | HCC 2998 > 100 µM | TK-10 > 100 µM | UACC-62 > 100 µM | UO-31 > 100 µM | RXF 393 > 100 µM | UACC-257 > 100 µM | SK-MEL-5 > 100 µM | Malme-3M > 100 µM | EKVX > 100 µM | RPMI-8226 > 100 µM | K562 > 100 µM | A498 > 100 µM | MOLT-4 > 100 µM

O=C(O)CCCc1nc2c(n1Cc1ccccc1)C(=O)c1ccccc1C2=O
inactive: HL-60 29.1 µM | SF-539 69.8 µM | HCC 2998 56.2 µM | TK-10 > 100 µM | UACC-62 17.2 µM | UO-31 > 100 µM | SW-620 40.6 µM | MCF7 29.6 µM | UACC-257 25 µM | NCI/ADR-RES 36.6 µM | Malme-3M 15.7 µM | EKVX 31.6 µM | RPMI-8226 18.7 µM | K562 42.7 µM | A498 34.4 µM | MOLT-4 44.9 µM

Cc1nc2nn(Cc3ccccc3)cc2c(=O)o1
inactive: HL-60 > 100 µM | SF-539 > 100 µM | HT-29 > 100 µM | HCC 2998 > 100 µM | TK-10 > 100 µM | UACC-62 > 100 µM | UO-31 > 100 µM | RXF 393 44 µM | SW-620 > 100 µM | UACC-257 > 100 µM | SK-MEL-5 > 100 µM | Malme-3M > 100 µM | EKVX > 100 µM | RPMI-8226 > 100 µM | K562 > 100 µM | A498 > 100 µM | MOLT-4 > 100 µM

CC(C)(C)NNC(=O)/C(=C/c1ccc(Oc2ccc(Cl)c(Cl)c2)cc1)NC(=O)c1ccccc1
inactive: HL-60 40.5 µM | SF-539 > 100 µM | HT-29 > 100 µM | HCC 2998 > 100 µM | TK-10 > 100 µM | UACC-62 > 100 µM | UO-31 > 100 µM | RXF 393 > 100 µM | UACC-257 > 100 µM | SK-MEL-5 > 100 µM | Malme-3M > 100 µM | EKVX > 100 µM | RPMI-8226 22.1 µM | K562 42.5 µM | A498 > 100 µM | MOLT-4 65 µM

O=C(N/N=C/c1ccccc1O)N/N=C/c1ccccc1O
inactive: HL-60 > 100 µM | SF-539 > 100 µM | HT-29 > 100 µM | HCC 2998 > 100 µM | TK-10 > 100 µM | UACC-62 > 100 µM | UO-31 > 100 µM | RXF 393 > 100 µM | SW-620 > 100 µM | UACC-257 > 100 µM | Malme-3M > 100 µM | EKVX > 100 µM | RPMI-8226 > 100 µM | K562 > 100 µM | A498 > 100 µM | MOLT-4 > 100 µM

OC12c3ccccc3C3CCC4(OCCO4)C3C1c1ccccc12 (stereo unspecified)
inactive: HL-60 > 100 µM | SF-539 > 100 µM | HT-29 94.2 µM | HCC 2998 > 100 µM | TK-10 83.2 µM | UACC-62 > 100 µM | UO-31 > 100 µM | RXF 393 39.9 µM | SW-620 > 100 µM | UACC-257 71.9 µM | SK-MEL-5 > 100 µM | Malme-3M > 100 µM | EKVX > 100 µM | RPMI-8226 64 µM | K562 49.8 µM | A498 52.1 µM | MOLT-4 48.6 µM

COC1CCC2C(NS(=O)(=O)c3ccc(C)cc3)CCCC2O1.Cc1ccc(S(=O)(=O)NC(C)(C)C=O)cc1 (stereo unspecified)
inactive: HL-60 8.18 µM | SF-539 20 µM | HT-29 11.4 µM | HCC 2998 33.5 µM | TK-10 18.1 µM | UACC-62 33 µM | UO-31 15 µM | RXF 393 11.4 µM | SW-620 > 34.5 µM | UACC-257 3.29 µM | SK-MEL-5 7.76 µM | Malme-3M 23 µM | EKVX 31 µM | RPMI-8226 6.21 µM | K562 9.68 µM | A498 > 34.5 µM | MOLT-4 8.3 µM

CC(C)[C@@H](C(=O)N(C)[C@H](C(=O)N1CCC[C@H]1C(=O)OCc1ccccc1)C(C)C)N(C)C(=O)C(Cc1ccccc1)N(C)C(=O)[C@H](NC(=O)OC(C)(C)C)C(C)C (stereo partly specified) (Boc-[dV][ξNMeF][NMeV][NMeV]P-OBn)
inactive: HL-60 19 µM | SF-539 > 31.6 µM | HT-29 > 31.6 µM | HCC 2998 > 10 µM | TK-10 > 31.6 µM | UACC-62 > 31.6 µM | UO-31 > 31.6 µM | RXF 393 > 31.6 µM | SW-620 > 31.6 µM | UACC-257 > 31.6 µM | SK-MEL-5 15.6 µM | Malme-3M > 84.9 µM | EKVX > 31.6 µM | RPMI-8226 10.4 µM | K562 13.5 µM | A498 > 31.6 µM | MOLT-4 10.7 µM
